Results on 6 molecules are retold here after patent publication US4254109A, “1H-Benz[de]isoquinoline-2(3H)-acetic acid derivatives” (Ayerst, McKenna & Harrison Inc., priority 1979, dated 1981).

Test [1] deals with T1, aldose reductase (Bos taurus, UniProt P16116).
T1 construct: preparation of the enzyme from bovine lens; from tissue; host or cells: bovine lens
Kind of test: in vitro aldose reductase inhibition (modified Hayman and Kinoshita procedure; enzyme from bovine lens). The note with it: read-out: Percent Inhibition at Different Molar Concentrations (in vitro); for inhibition at 10 µM: 10^-5 molar; for inhibition at 1 µM: 10^-6 molar; for inhibition at 0.1 µM: 10^-7 molar. It is filed as biochemical. How it is done:
In the present case the procedure of Hayman and Kinoshita is modified in that the final chromatography step is omitted in the preparation of the enzyme from bovine lens.
The following results were obtained when the compounds of this invention were evaluated in the above in vitro test (the results for 1,3-dioxo-1H-benz[de]isoquinoline-2(3H)-acetic acid, see U.S. Pat. No. 3,821,383 cited hereinbefore, also is included for comparative purposes): […]

The subject of test [2] is aldose reductase. Conditions: cited from earlier work.
The test system of a further test is glucagon. The note with it: cited from earlier work.
A further test relates to insulin secretion. The note with it: cited from earlier work.

On to `O=C(O)CN1C(=O)c2cccc3c(Cl)ccc(c23)C1=O` [Example 2, 6-Chloro-1,3-dioxo-1H-benz[de]isoquinoline-2(3H)-acetic acid], for which, on aldose reductase [1], the inhibition at 10 µM amounted to 86%, the inhibition at 1 µM was found to be 42% and the inhibition at 0.1 µM is 9%.

As to `CCCCCCCCCCSc1ccc2c3c(cccc13)C(=O)N(CC(=O)O)C2=O` [Example 5, 1,3-Dioxo-6-(decylthio)-1H-benz[de]isoquinoline-2(3H)-acetic acid], at aldose reductase [1], the inhibition at 10 µM came out at 60%, the inhibition at 1 µM stood at 33% and the inhibition at 0.1 µM worked out at 26%.

Regarding `O=C(O)CN1C(=O)c2cccc3cccc(c23)C1=O` [1,3-Dioxo-1H-benz[de]isoquinoline-2(3H)-acetic acid, reference compound], the “inhibitor of aldose reductase” value with aldose reductase [2] is listed as “effective inhibitor of aldose reductase”. Besides, in the test with glucagon, the “secretion of excessive amounts of glucagon” value is on record as “prevents or decreases the secretion of excessive amounts of glucagon”. Also, the insulin secretion entry in the test with insulin secretion is “stimulates insulin secretion”. In addition, on aldose reductase [1], the inhibition at 10 µM turned out to be 74%, the inhibition at 1 µM was found to be 32% and the inhibition at 0.1 µM was found to be 5%.

For the molecule `O=C(O)CN1C(=O)c2cccc3c(C(=O)c4ccccc4)ccc(c23)C1=O` [Example 1, 6-Benzoyl-1,3-dioxo-1H-benz[de]isoquinoline-2(3H)-acetic acid], on aldose reductase [1], the inhibition at 10 µM is 85%, the inhibition at 1 µM is 65% and the inhibition at 0.1 µM is 22%.

Consider `O=C(O)CN1C(=O)c2cccc3c(Sc4ccccc4C(=O)O)ccc(c23)C1=O` [Example 4, 1,3-Dioxo-6-[(2-carboxyphenyl)thio]-1H-benz[de]isoquinoline-2(3H)-acetic acid], for which, at aldose reductase [1], the inhibition at 10 µM turned out to be 91%, the inhibition at 1 µM came to 61% and the inhibition at 0.1 µM was 17%.

Take `O=C(O)CN1C(=O)c2cccc3c(Sc4ccccc4)ccc(c23)C1=O` [Example 3, 1,3-Dioxo-6-(phenylthio)-1H-benz[de]isoquinoline-2(3H)-acetic acid]: at aldose reductase [1], the inhibition at 10 µM is 92%, the inhibition at 1 µM was determined as 71% and the inhibition at 0.1 µM came to 22%.
